For four molecules, MIC and HC50 results are on record in patent US10874745B2, “Antimicrobial peptides and methods of treating gram-negative pathogens: polar and non-polar face analogs” (priority 2017, dated 2020).

In data set [1] the test system is A. baumannii strains resistant to Polymyxin B and Colistin. It is filed as cell-based.
A further data set can be described thus: Hemolytic activity. The settings on record: 1% human erythrocytes (red blood cells), pH 7.4. It is filed as cell-based, human. The method, then: (§1) Hemoglobin release was determined spectrophotometrically at 570 nm. […] […] […] With the peptides used in this study the inventors used the HC30/MIC ratio value to calculate the therapeutic index.
In the next data set the test system is human red blood cells. Kind of data set: Hemolytic activity. The class given is cell-based. The method, then: as §1

≈ marks a conversion by molar mass, not a printed value. Where “and” joins values, the source holds several entries; their conditions need not be identical. Equal values may be shown once. Read-outs that look alike come from different tables or passages of the source. Non-standard residues stand in square brackets, D forms with d. Residues, ends and D or L forms follow the SMILES beside them. *: point of attachment. MeO(CH2CH2O)23CH2CH2CO = COCCOCCOCCOCCOCCOCCOCCOCCOCCOCCOCCOCCOCCOCCOCCOCCOCCOCCOCCOCCOCCOCCOCCOCCC(=O)*; dDab = NCC[C@@H](N)C(=O)O; dDap = NC[C@@H](N)C(=O)O Where only a bound is given, the exact number is not on record here.

Turning to `CC(=O)N[C@H](CCCCN)C(=O)N[C@H](CC(C)C)C(=O)N[C@H](CN)C(=O)N[C@H](CO)C(=O)N[C@H](CC(C)C)C(=O)N[C@H](CC(C)C)C(=O)N[C@H](CN)C(=O)N[C@@H](C(=O)N[C@H](CC(C)C)C(=O)N[C@H](CO)C(=O)N[C@H](C)C(=O)N[C@H](C)C(=O)N[C@H](CCCCN)C(=O)N[C@H](CN)C(=O)N[C@H](CN)C(=O)N[C@H](CCCCN)C(=O)N[C@H](CC(C)C)C(=O)N[C@H](C)C(=O)N[C@@H](C(=O)N[C@H](CC(C)C)C(=O)N[C@H](CC(C)C)C(=O)N[C@H](CN)C(=O)N[C@H](C)C(=O)N[C@H](CC(C)C)C(=O)N[C@H](CO)C(=O)N[C@H](CN)C(N)=O)[C@H](C)O)[C@H](C)O` [Peptide D106, Ac-KL(Dpr)SLL(Dpr)TLSAAK(Dpr)(Dpr)KLATLL(Dpr)ALs(Dpr)-amide] (Ac-[dK][dL][dDap][dS][dL][dL][dDap][dT][dL][dS][dA][dA][dK][dDap][dDap][dK][dL][dA][dT][dL][dL][dDap][dA][dL][dS][dDap]-NH2), the MIC in data set [1] (strain MB9941 (Table 9C)) worked out at 0.8 µM (≈ 2.09 µg/mL); in data set [1] (strain MB9949 (Table 9C)), 0.8 µM (≈ 2.09 µg/mL); in data set [1] (strain MB9951 (Table 9C)) it was 1.5 µM (≈ 3.92 µg/mL); in data set [1] (strain MB9952 (Table 9C)), 0.8 µM (≈ 2.09 µg/mL); in data set [1] (strain MB9953 (Table 9C)), 0.8 µM (≈ 2.09 µg/mL); in data set [1] (strain MB9955 (Table 9C)), 0.4 µM (≈ 1.05 µg/mL). Also, in data set [1] (strain MB9963 (Table 9C)), the MIC is 0.8 µM (≈ 2.09 µg/mL). The concentration for 50% haemolysis (HC50) at 18 h in the data set “Hemolytic activity” (human) was 889 µg/mL and 340 µM. In addition, the HC50 in the data set on human red blood cells stood at 340.2 µM.
As to `CC(=O)N[C@H](CCCCN)C(=O)N[C@H](CC(C)C)C(=O)N[C@H](CN)C(=O)N[C@H](CO)C(=O)N[C@H](CC(C)C)C(=O)N[C@H](CC(C)C)C(=O)N[C@H](CN)C(=O)N[C@@H](C(=O)N[C@H](CC(C)C)C(=O)N[C@H](CO)C(=O)N[C@H](CN)C(=O)N[C@H](C)C(=O)N[C@H](CCCCN)C(=O)N[C@H](C)C(=O)N[C@H](C)C(=O)N[C@H](CCCCN)C(=O)N[C@H](CC(C)C)C(=O)N[C@H](CN)C(=O)N[C@@H](C(=O)N[C@H](CC(C)C)C(=O)N[C@H](CC(C)C)C(=O)N[C@H](CN)C(=O)N[C@H](C)C(=O)N[C@H](CC(C)C)C(=O)N[C@H](CO)C(=O)N[C@H](CN)C(N)=O)[C@H](C)O)[C@H](C)O` [Peptide D105, Ac-KL(Dpr)SLL(Dpr)TLS(Dpr)AKAAKL(Dpr)TLL(Dpr)ALS(Dpr)-amide], the MIC stood at 0.8 µM (≈ 2.09 µg/mL) in data set [1] (strain MB9941 (Table 9C)); 0.8 µM (≈ 2.09 µg/mL) in data set [1] (strain MB9949 (Table 9C)); 3.0 µM (≈ 7.84 µg/mL) in data set [1] (strain MB9951 (Table 9C)); 0.8 µM (≈ 2.09 µg/mL) in data set [1] (strain MB9952 (Table 9C)); 3.0 µM (≈ 7.84 µg/mL) in data set [1] (strain MB9953 (Table 9C)); 0.8 µM (≈ 2.09 µg/mL) in data set [1] (strain MB9955 (Table 9C)). The same molecule yielded an MIC in data set [1] (strain MB9963 (Table 9C)) of 1.5 µM (≈ 3.92 µg/mL). In addition, the HC50 at 18 h in “Hemolytic activity” (human) is > 3000 µg/mL and > 1.15 mM.
On to `COCCOCCOCCOCCOCCOCCOCCOCCOCCOCCOCCOCCOCCOCCOCCOCCOCCOCCOCCOCCOCCOCCOCCOCCC(=O)N[C@H](CCCCN)C(=O)N[C@H](CC(C)C)C(=O)N[C@H](CCN)C(=O)N[C@H](CO)C(=O)N[C@H](CC(C)C)C(=O)N[C@H](CC(C)C)C(=O)N[C@H](CCN)C(=O)N[C@@H](C(=O)N[C@H](CC(C)C)C(=O)N[C@H](CO)C(=O)N[C@H](CCN)C(=O)N[C@H](C)C(=O)N[C@H](CCCCN)C(=O)N[C@H](C)C(=O)N[C@H](C)C(=O)N[C@H](CCCCN)C(=O)N[C@H](CC(C)C)C(=O)N[C@H](CCN)C(=O)N[C@@H](C(=O)N[C@H](CC(C)C)C(=O)N[C@H](CC(C)C)C(=O)N[C@H](CCN)C(=O)N[C@H](C)C(=O)N[C@H](CC(C)C)C(=O)N[C@H](CO)C(=O)N[C@H](CCN)C(N)=O)[C@H](C)O)[C@H](C)O` [Peptide D86PEG1, m-dPEG24-D86] ({MeO(CH2CH2O)23CH2CH2CO}-[dK][dL][dDab][dS][dL][dL][dDab][dT][dL][dS][dDab][dA][dK][dA][dA][dK][dL][dDab][dT][dL][dL][dDab][dA][dL][dS][dDab]-NH2), for which the MIC turned out to be 1.1 µM (≈ 4.13 µg/mL) in data set [1] (strain MB9941 (Table 9C)); 2.1 µM (≈ 7.88 µg/mL) in data set [1] (strain MB9949 (Table 9C)); 4.1 µM (≈ 15.4 µg/mL) in data set [1] (strain MB9951 (Table 9C)); 4.1 µM (≈ 15.4 µg/mL) in data set [1] (strain MB9952 (Table 9C)); 8.3 µM (≈ 31.2 µg/mL) in data set [1] (strain MB9953 (Table 9C)); 1.1 µM (≈ 4.13 µg/mL) in data set [1] (strain MB9955 (Table 9C)). Further, the MIC in data set [1] (strain MB9963 (Table 9C)) worked out at 4.1 µM (≈ 15.4 µg/mL). The HC50 at 18 h in the data set “Hemolytic activity” (50% hemolysis of human red blood cells after 18 hours at 37° C., read-out: HC50) was 363 µg/mL and 137 µM. In the data set with human red blood cells (50% hemolysis of human red blood cells after 18 hours at 37° C.), this molecule displayed an HC50 of 136.7 µM.
On to `CC(=O)N[C@H](CCCCN)C(=O)N[C@H](CC(C)C)C(=O)N[C@H](CCN)C(=O)N[C@H](CO)C(=O)N[C@H](CC(C)C)C(=O)N[C@H](CC(C)C)C(=O)N[C@H](CCN)C(=O)N[C@@H](C(=O)N[C@H](CC(C)C)C(=O)N[C@H](CO)C(=O)N[C@H](C)C(=O)N[C@H](C)C(=O)N[C@H](CCCCN)C(=O)N[C@H](CCN)C(=O)N[C@H](CCN)C(=O)N[C@H](CCCCN)C(=O)N[C@H](CC(C)C)C(=O)N[C@H](C)C(=O)N[C@@H](C(=O)N[C@H](CC(C)C)C(=O)N[C@H](CC(C)C)C(=O)N[C@H](CCN)C(=O)N[C@H](C)C(=O)N[C@H](CC(C)C)C(=O)N[C@H](CO)C(=O)N[C@H](CCN)C(N)=O)[C@H](C)O)[C@H](C)O` [Peptide D89, Ac-KL(Dbu)SLL(Dbu)TLSAAK(Dbu)(Dbu)KLATLL(Dbu)ALS(Dbu)-amide] (Ac-[dK][dL][dDab][dS][dL][dL][dDab][dT][dL][dS][dA][dA][dK][dDab][dDab][dK][dL][dA][dT][dL][dL][dDab][dA][dL][dS][dDab]-NH2), for which the MIC in data set [1] (strain MB9941 (Table 9C)), in data set [1] (strain MB9949 (Table 9C)), in data set [1] (strain MB9951 (Table 9C)), in data set [1] (strain MB9952 (Table 9C)), in data set [1] (strain MB9953 (Table 9C)) and in data set [1] (strain MB9955 (Table 9C)) was 0.7 µM (≈ 1.89 µg/mL) each time. The minimum inhibitory concentration (MIC) in data set [1] (strain MB9963 (Table 9C)) turned out to be 0.7 µM (≈ 1.89 µg/mL). Moreover, in the data set “Hemolytic activity” (human), the HC50 at 18 h is > 3000 µg/mL and > 1.11 mM.

A word on the MIC: it is the least concentration at which growth counts as inhibited. Low readings indicate inhibition by little substance, high ones a need for much substance. In general, HC50 refers to the concentration that lyses half of the red blood cells.
